Results from patent publication US6383773B2, “Penicillin conversion” (Massachusetts Institute of Technology, priority 1998, dated 2002).

Columns and labels:
[1] = tested on: resting S. clavuligerus NP1 cells; experiment: Penicillin G conversion by resting cells: buffer, preincubation, substrate concentration (Example 4); assay type: cell-based
Description: Microorganisms, Media, and Culture Conditions: S. clavuligerus mutant NP-1, described in Example 1 was used for these studies. A seed culture was made by inoculating a spore suspension (40 μl) into 40 ml MST medium in 250 ml baffled flasks, and incubating for 2 days at 30° C. and 250 rpm. One ml of the seed culture was used as inoculum for the main culture which contained 80 ml of MST medium in 500 ml unbaffled flasks. The flasks were incubated for 24 h at 30° C. and 250 rpm.
Preparation of Resting Cells: Cells were harvested by centrifugation at 14,000×g, for 15 min at 4° C. and washed twice with cold deionized water. They were resuspended in 10 ml of water.
Ring Expansion Reaction: The standard reaction mixture (10 ml) contained 0.05 M Tris-HCl pH 7.4, 8.0 mM KCl, 8.0 mM MgSO4.7H2O, 4.0 mM ascorbic acid, 1.8 mM FeSO4.7H2O, 1.28 mM α-ketoglutaric acid, 20 mg/ml penicillin G and 4.0 ml cell suspension. The order of addition of the components were as previously described (Shen et al., Enzyme Microb. Technol. 6:402-404, 1984). The reaction started when penicillin G was added to the reaction mixture which was incubated at 30° C. and 220 rpm.
Expandase Assay: Product formation was estimated by the paper disk-agar diffusion bioassay as described in example 1, using deacetoxycephalosporin G as standard. Escherichia coli strain Ess, a β-lactam supersensitive, mutant was used as the assay microorganism.

[2] = biological target: T1, expandase from N. lactamdurans (Amycolatopsis lactamdurans, UniProt Q03047); experiment: Ring expansion by cell-free extracts of S. lividans containing pUL702-202a (Example 7); assay type: biochemical; conditions: S. lividans pUL702-202a cell-free extract 6 mg/ml protein, substrate 5.6 mM, after 2 h of reaction
T1 construct: made in house; host or cells: S. lividans 1326 transformed with pUL702-202a, crude cell-free extract
T1 sequence (Q03047 whole entry): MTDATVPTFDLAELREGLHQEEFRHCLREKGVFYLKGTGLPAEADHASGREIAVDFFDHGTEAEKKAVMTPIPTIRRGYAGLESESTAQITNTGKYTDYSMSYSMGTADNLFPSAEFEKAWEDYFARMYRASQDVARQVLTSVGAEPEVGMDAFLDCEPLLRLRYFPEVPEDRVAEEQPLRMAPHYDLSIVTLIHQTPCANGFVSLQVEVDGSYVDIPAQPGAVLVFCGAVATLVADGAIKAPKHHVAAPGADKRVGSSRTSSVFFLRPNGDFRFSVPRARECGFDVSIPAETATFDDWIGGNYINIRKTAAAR
Description: Microorganism, Medium and Culture Conditions: S. lividans 1326 was used in all experiments. Cultures were grown in 250 ml baffled flasks containing 40 ml of MST medium. Each flask was inoculated with 50 μl of a spore suspension (prepared and stored at −80° C. in 20% glycerol) and incubated at 30° C., 250 rpm, for 48 h.
Plasmids: The plasmid pUL702-202a was a gift from J. F. Martin (University of León, Spain). This vector harboured a 4.3 Kb BglII fragment containing the epimerase and expandase genes from Nocardia lactamdurans inserted at the BglII site on pIJ702. The plasmid pHJ11 was constructed by cloning a 3 Kb BglII fragment containing the expandase gene from S. clavuligerus 3585 into pIJ702 at the BglII site.
Ring Expansion Reaction: The ring expansion mixture contained 1.8 mM FeSO4, 1.28 mM α-ketoglutarate, 6 mg/ml protein (cell-free extract), 8 mM KCl, 8 mM MgSO4, 14 mM DTT and 50 mM TrisHCl (pH 7.4) in a final volume of 2.5 ml. Substrate concentration was 5.6 mM. Additions were made following the order established by Shen et al. (Enzyme Microb. Technol. 6:402-404, 1984). Reaction mixtures were incubated in test tubes at 220 rpm, 30° C. At different times, 0.5 ml samples were taken and the reaction was stopped by adding 0.5 ml of methanol. […] Biotransformation activity was detected by paper disc-agar diffusion bioassay. […]

[3] = tested on: S. clavuligerus NP1 resting cells; experiment: Penicillin G ring expansion by resting cells, paper disc-agar diffusion bioassay (Example 1); assay type: cell-based; conditions: for DAOG produced: after 3-6 hours of reaction
Description: Resting Cells: From a seed culture (in MST), 0.5 ml was transferred to new flasks containing 40 ml of the same medium. Cells were grown at 30° C., 250 rpm for 24 h. Mycelia from each flask were washed twice, and finally, resuspended in 10 ml of distilled water. Four ml of this cell suspension were used in the reaction mixture.
Ring Expansion Reaction: We defined ring expansion reaction conditions as modifications of the standard reaction mixture for expandase reactions described by Maeda et al. (Maeda et al., Enzyme Microb. Technol. 17:231-34, 1995) except that penicillin G was used a substrate instead of penicillin N. Additions were made following the order established by Shen et al. (Shen et al., Enzyme Microb. Technol. 6:402-404, 1984. Reaction mixtures were incubated in test tubes (cell-free extract) or 250 ml baffled flasks (resting cells) at 220 rpm, 30° C. Reactions containing the protein extract were stopped at various times (see Table 1 and Figure Legends) by mixing 0.5 ml of assay solution with 0.5 ml of methanol. In the case of resting cells, samples were centrifuged to remove cells and supernatants were transferred to new tubes. Expandase activity was detected by paper disc-agar diffusion bioassay.
Detection of Expandase Activity: As mentioned above, expandase activity was detected by assaying production of a growth-inhibitory zone in a paper disc-agar diffusion bioassay. Paper discs were saturated with 200 μl of the reaction mixture (cell-free extracts or supernatant (resting cells) as follows. Two discs were superimposed and four 50 μl samples were applied. After each application, the discs were allowed to dry for 20 min at 37° C. under a laminar hood and, finally, they were placed on LB (1% tryptone, 0.5% NaCl, 0.5% yeast extract, 0.1% glucose) 0.8% agar medium seeded with E. coli ESS (a β-lactam supersensitive mutant), and the plates were incubated overnight at 37° C. The formation of DAOG and/or other cephalosporin(s) was determined by including 50,000 IU/ml of penicillinase (Difco Bacto penase concentrate, Difco Laboratories, Detroit, Mich.) in the assay plates. This penicillinase is a narrow spectrum β-lactamase that attacks penicillins but not cephalosporins. The diameters of zones of growth inhibition were measured and quantified with a calibration curve using DAOG as standard.

For `CC1(C)S[C@@H]2[C@H](NC(=O)Cc3ccccc3)C(=O)N2[C@H]1C(=O)O` [Penicillin G, penicillin G], the percent conversion ([1]; 0.015 mg/ml substrate, subsequent experiments) was at most 16.5%, the percent conversion ([1]; 0.063 mg/ml of penicillin G) was “about 9.0%” and the percent conversion ([1]; 2 mg/ml of penicillin G) was “about 1.0%”. The percent conversion ([1]; 8 mg/ml of penicillin G) was “about 0.4%”, the “increase of cephalosporin production versus 0.05 M Tris-HCl pH 7.4” value ([1]; 0.05 M MOPS pH 6.5 or 0.05 M HEPES pH 6.5) was “more than two-fold” and the “penicillin G conversion” value ([1]; cells preincubated 3 hours with Fe2+ and ascorbic acid, with or without α-ketoglutarate) was “virtually eliminated”. The “reduction of total production” value ([1]; cells preincubated 3 hours with either buffer, Fe2+, ascorbic acid, or α-ketoglutarate) was “about 50%”, the production of cephalosporins [2] was “approximately 8 μg/ml” and the “μg DAOG/ml” value ([3]; resting cells 13 mg/ml dry cell weight, 2 mg/ml penicillin G, 2 h, cofactor omitted: ATP (0.7 mM)) was 10.0 μg DAOG/ml. For the same compound, the “μg DAOG/ml” value ([3]; resting cells 13 mg/ml dry cell weight, 2 mg/ml penicillin G, 2 h, cofactor omitted: Ascorbic acid (4 mM)) was 3.0 μg DAOG/ml, the “μg DAOG/ml” value ([3]; resting cells 13 mg/ml dry cell weight, 2 mg/ml penicillin G, 2 h, cofactor omitted: DTT (16 mM)) was 15.5 μg DAOG/ml and the “μg DAOG/ml” value ([3]; resting cells 13 mg/ml dry cell weight, 2 mg/ml penicillin G, 2 h, cofactor omitted: FeSO4.7H2O (1.8 mM)) was 3.2 μg DAOG/ml. The “μg DAOG/ml” value ([3]; resting cells 13 mg/ml dry cell weight, 2 mg/ml penicillin G, 2 h, cofactor omitted: KCl (8 mM)) was 11.5 μg DAOG/ml, the “μg DAOG/ml” value ([3]; resting cells 13 mg/ml dry cell weight, 2 mg/ml penicillin G, 2 h, cofactor omitted: MgSO4.7H2O (8 mM)) was 10.1 μg DAOG/ml and the “μg DAOG/ml” value ([3]; resting cells 13 mg/ml dry cell weight, 2 mg/ml penicillin G, 2 h, cofactor omitted: None) was 10.5 μg DAOG/ml. For the same compound, the “μg DAOG/ml” value ([3]; resting cells 13 mg/ml dry cell weight, 2 mg/ml penicillin G, 2 h, cofactor omitted: α-ketoglutarate (1.28 mM)) was 3.7 μg DAOG/ml, the DAOG produced ([3]; resting cells, Maeda et al. reaction conditions (0.04 mM FeSO4, 0.64 mM α-ketoglutarate)) was “about 6 μg/ml” and the DAOG produced ([3]; resting cells, inventive conditions (1.8 mM FeSO4, 1.28 mM α-ketoglutarate)) was “about 19 μg/ml”. The “DAOG produced relative to complete reaction” value ([3]; resting cells, two hours, omission of Fe2+, α-ketoglutarate, or ascorbic acid) was “about 30%”, the “μg DAOG/ml” value ([3]; resting cells, ATP concentration 0 (mM)) was 6.6 μg DAOG/ml and the “μg DAOG/ml” value ([3]; resting cells, ATP concentration 0.14 (mM)) was 6.4 μg DAOG/ml. For the same compound, the “μg DAOG/ml” value ([3]; resting cells, ATP concentration 0.35 (mM)) was 6.4 μg DAOG/ml, the “μg DAOG/ml” value ([3]; resting cells, ATP concentration 0.7 (mM)) was 6.6 μg DAOG/ml and the “μg DAOG/ml” value ([3]; resting cells, ATP concentration 2.4 (mM)) was 6.6 μg DAOG/ml. For the same compound, the “μg DAOG/ml” value ([3]; resting cells, ATP concentration 3.5 (mM)) was 4.7 μg DAOG/ml, the “μg DAOG/ml” value ([3]; resting cells, Ascorbate concentration 0 (mM)) was 2.4 μg DAOG/ml and the “μg DAOG/ml” value ([3]; resting cells, Ascorbate concentration 0.8 (mM)) was 4.0 μg DAOG/ml. For the same compound, the “μg DAOG/ml” value ([3]; resting cells, Ascorbate concentration 2 (mM)) was 6.0 μg DAOG/ml, the “μg DAOG/ml” value ([3]; resting cells, Ascorbate concentration 4 (mM)) was 6.4 μg DAOG/ml and the “μg DAOG/ml” value ([3]; resting cells, Ascorbate concentration 8 (mM)) was 6.4 μg DAOG/ml. For the same compound, the “increase of DAOG production” value ([3]; resting cells, omission of DTT) was “approximately 50%”.
